System: hippocampal slices from wt and Δ9 mutant (PS-1) animals
Assay type: cell-based

| Compound | difference in potentiation between wt and Δ9 mutation slices post-tetanus | AP5-sensitive potentials during tetanus, difference between wt and Δ9 mutant slices |
| --- | --- | --- |
| CN1C(=O)CN=C(c2ccccc2F)c2cc([N+](=O)[O-])ccc21 [flunitrazepam] | no statistically significant difference between the two groups | – |
| AP5 | – | no statistically significant difference between the two groups |

Source: patent US6960470B1 (priority 1998, dated 2005)
